According to patent publication US20250144067A1, “PERSONALIZED STARVATION THERAPY FOR CANCER” (Faeth Therapeutics, Inc., priority 2021, published 2025):
Counter-ions that a name gives are not always drawn. Like-named read-outs stand apart in the source and are kept apart here.

Tests used:
[1] = system: NCI-H292 lung cancer cells; test: FDA drug screening, complete media vs cholesterol-free media with simvastatin (TABLE 2); format: cell-based, human
[2] = system: NCI-H292 lung cancer cells; test: FDA drug screening, complete media vs cholesterol-free media without statin (TABLE 1); format: cell-based, human
[3] = NCI-H292 cells, FDA drug library screen, cholesterol-free media with simvastatin 0.04 μM
[4] = NCI-H292 cells, FDA drug library screen, complete media
[5] = complete media minus cholesterol-free media + simvastatin, >0 enhanced anti-cancer activity, about 0 neutral, <0 antagonist
[6] = NCI-H292 cells, cholesterol-free media without statin, FDA drug library screen
[7] = NCI-H292 cells, complete media, FDA drug library screen
[8] = complete vs cholesterol-free media, >0 enhanced anti-cancer activity, about 0 neutral, <0 antagonist
[9] = complete media vs cholesterol-free media + simvastatin (0.04 μM), >0 enhanced anti-cancer activity, about 0 neutral, <0 antagonist
[10] = Complete minus Cholesterol-free, >0 enhanced anti-cancer activity, about 0 neutral, <0 antagonist
[11] = NCI-H292 cells, cholesterol-free media without statin
[12] = complete media minus cholesterol-free media + simvastatin (0.04 μM), >0 enhanced anti-cancer activity, about 0 neutral, <0 antagonist
[13] = complete vs cholesterol-free media, greater than 0 enhanced anti-cancer activity, about 0 neutral, below 0 antagonists
[14] = NCI-H292 cells, drug in cholesterol-free media with simvastatin 0.04 μM
[15] = NCI-H292 cells, drug in complete media
[16] = NCI-H292 cells, cholesterol-free media with simvastatin 0.04 μM, cell growth value in FDA drug screen
[17] = NCI-H292 cells, complete media, cell growth value in FDA drug screen
[18] = NCI-H292 cells, cholesterol-free media with simvastatin 0.04 μM, FDA drug library screen (TABLE 2)
[19] = NCI-H292 cells, complete media, FDA drug library screen (TABLE 2)
[20] = NCI-H292 cells, FDA library drug in cholesterol-free media with simvastatin 0.04 μM
[21] = NCI-H292 cells, FDA library drug in complete media
[22] = Complete minus Cholesterol-free, […]
[23] = Complete minus Cholesterol-free, greater than 0 enhanced anti-cancer activity, about 0 neutral, below 0 antagonists
[24] = NCI-H292 cells in cholesterol-free media without statin
[25] = NCI-H292 cells in complete media

CCCS(=O)(=O)Nc1ccc(F)c(C(=O)c2c[nH]c3ncc(-c4ccc(Cl)cc4)cc23)c1F [Vemurafenib]
Cholesterol-free media + simvastatin (0.04 μM) [1, 3]: 0.8006 | Complete Media [1, 4]: 0.9559 | Difference [1, 5]: 0.16 | Cholesterol-free [2, 6]: 0.6442 | Complete [2, 7]: 1.257 | Difference [2, 8]: 0.61

C=C(c1ccc(C(=O)O)cc1)c1cc2c(cc1C)C(C)(C)CCC2(C)C [Bexarotene]
Cholesterol-free media + simvastatin (0.04 μM) [1, 3]: 1.087 | Complete Media [1, 4]: 0.9865 | Difference [1, 9]: −0.10 | Difference [2, 10]: −0.22 | Cholesterol-free [2, 11]: 1.341 | Complete ([2]; NCI-H292 cells, complete media): 1.124

C[C@@H]1C[C@H]2[C@@H]3CCC4=CC(=O)C=C[C@]4(C)[C@@]3(F)[C@@H](O)C[C@]2(C)[C@@]1(O)C(=O)CO [Dexamethasone]
Cholesterol-free media + simvastatin (0.04 μM) [1, 3]: 0.6107 | Complete Media [1, 4]: 0.7971 | Difference [1, 5]: 0.19 | Difference [2, 10]: 0.07 | Cholesterol-free [2, 6]: 0.7411 | Complete [2, 7]: 0.8107

Tandospirone (citrate)
Difference [1, 12]: 0.00 | Cholesterol-free [2, 11]: 1.167 | Complete ([2]; NCI-H292 cells, complete media): 0.8565 | Difference [2, 13]: −0.31

Cc1cc(-c2ccc(/N=N/c3ccc4c(S(=O)(=O)O)cc(S(=O)(=O)O)c(N)c4c3O)c(C)c2)ccc1/N=N/c1ccc2c(S(=O)(=O)O)cc(S(=O)(=O)O)c(N)c2c1O [Evans Blue]
Cholesterol-free media + simvastatin (0.04 μM) [1, 14]: 1.142 | Complete Media [1, 15]: 0.9534 | Difference [1, 9]: −0.19 | Difference [2, 10]: −0.05 | Cholesterol-free [2, 6]: 1.165 | Complete [2, 7]: 1.11

Nc1nc(=O)n([C@@H]2CS[C@H](CO)O2)cc1F [Emtricitabine]
Cholesterol-free media + simvastatin (0.04 μM) [1, 16]: 1.347 | Complete Media [1, 17]: 1.442 | Difference [1, 5]: 0.09 | Cholesterol-free [2, 6]: 0.9457 | Complete [2, 7]: 1.235 | Difference [2, 8]: 0.29

O=C1CC2(CCCC2)CC(=O)N1CCCCN1CCN(c2ncccn2)CC1 [Buspirone (hydrochloride)]
Cholesterol-free media + simvastatin (0.04 μM) [1, 16]: 0.8828 | Complete Media [1, 17]: 0.9935 | Difference [1, 5]: 0.11 | Cholesterol-free [2, 11]: 1.286 | Complete ([2]; NCI-H292 cells, complete media): 0.8529 | Difference [2, 13]: −0.43

CCCCCCCCCCCCCCCCOP(=O)([O-])OCC[N+](C)(C)C [Miltefosine]
Cholesterol-free media + simvastatin (0.04 μM) [1, 14]: 1.237 | Complete Media [1, 15]: 0.9911 | Difference [1, 9]: −0.25 | Difference [2, 10]: −0.07 | Cholesterol-free [2, 6]: 1.003 | Complete [2, 7]: 0.9345

CC(=O)O[C@H]1C[C@@]2(C)[C@@H](C[C@@H](O)[C@H]3[C@@]4(C)CC[C@@H](O)[C@@H](C)[C@@H]4CC[C@@]32C)/C1=C(\CCC=C(C)C)C(=O)O [Fusidic acid (sodium salt)]
Cholesterol-free media + simvastatin (0.04 μM) [1, 18]: 0.9882 | Complete Media [1, 19]: 0.9484 | Difference [1, 12]: −0.04 | Cholesterol-free [2, 6]: 0.7301 | Complete [2, 7]: 1.107 | Difference [2, 8]: 0.38

NC(N)=O [Urea]
Cholesterol-free media + simvastatin (0.04 μM) [1, 20]: 1.928 | Complete Media [1, 21]: 1.641 | Difference [1, 9]: −0.29 | Difference [2, 10]: −0.20 | Cholesterol-free [2, 11]: 1.334 | Complete ([2]; NCI-H292 cells, complete media): 1.138

CC(O)Cn1cnc2c1c(=O)n(C)c(=O)n2C (centres unmarked) [Proxyphylline]
Cholesterol-free media + simvastatin (0.04 μM) [1, 20]: 1.208 | Complete Media [1, 21]: 0.9431 | Difference [1, 9]: −0.26 | Cholesterol-free [2, 6]: 0.7713 | Complete [2, 7]: 1.327 | Difference [2, 8]: 0.56

CC(C)[C@]12O[C@H]1[C@@H]1O[C@]13[C@]1(O[C@H]1C[C@H]1C4=C(CC[C@@]13C)C(=O)OC4)[C@@H]2O [Triptolide]
Cholesterol-free media + simvastatin (0.04 μM) [1, 18]: 0.007136 | Complete Media [1, 19]: −0.02177 | Difference ([1]; complete media minus cholesterol-free media + simvastatin (0.04 μM), […]): −0.03 | Difference [2, 22]: −0.01 | Cholesterol-free [2, 6]: 0.04113 | Complete [2, 7]: 0.03049

COC(=O)[C@H]1[C@H]2C[C@H]3c4[nH]c5ccccc5c4CCN3C[C@H]2CC[C@@H]1O [Rauwolscine (hydrochloride)]
Cholesterol-free media + simvastatin (0.04 μM) [1, 16]: 0.7455 | Complete Media [1, 17]: 0.837 | Difference [1, 5]: 0.09 | Cholesterol-free [2, 11]: 1.377 | Complete ([2]; NCI-H292 cells, complete media): 0.9629 | Difference [2, 13]: −0.41

COc1ccc(OC)c(C(O)CNC(=O)CN)c1 (centres unmarked) [Midodrine (hydrochloride)]
Cholesterol-free media + simvastatin (0.04 μM) [1, 20]: 2.06 | Complete Media [1, 21]: 1.752 | Difference [1, 9]: −0.31 | Cholesterol-free [2, 6]: 0.6607 | Complete [2, 7]: 0.8643 | Difference [2, 8]: 0.20

C=CCN1CCCC1CNC(=O)c1cc2[nH]nnc2cc1OC (centres unmarked) [Alizapride hydrochloride]
Cholesterol-free media + simvastatin (0.04 μM) [1, 16]: 1.019 | Complete Media [1, 17]: 1.057 | Difference [1, 5]: 0.04 | Cholesterol-free [2, 11]: 1.222 | Complete ([2]; NCI-H292 cells, complete media): 0.9062 | Difference [2, 13]: −0.32

NCCCCCC(=O)O [6-Aminocaproic acid]
Cholesterol-free media + simvastatin (0.04 μM) [1]: 1.226 | Complete Media [1]: 1.745 | Difference [1]: 0.52 | Cholesterol-free [2]: 1.11 | Complete [2]: 1.715 | Difference [2]: 0.60

O=C(NC1CCN(CCCCC2(C(=O)NCC(F)(F)F)c3ccccc3-c3ccccc32)CC1)c1ccccc1-c1ccc(C(F)(F)F)cc1 [Lomitapide]
Cholesterol-free media + simvastatin (0.04 μM) [1, 14]: 1.325 | Complete Media [1, 15]: 1.07 | Difference [1, 9]: −0.25 | Difference [2, 10]: −0.25 | Cholesterol-free [2, 11]: 0.9551 | Complete ([2]; NCI-H292 cells, complete media): 0.7097

CCCNC(=O)NS(=O)(=O)c1ccc(Cl)cc1 [Chlorpropamide]
Cholesterol-free media + simvastatin (0.04 μM) [1, 14]: 1.114 | Complete Media [1, 15]: 0.9308 | Difference [1, 9]: −0.18 | Difference [2, 23]: −0.51 | Cholesterol-free [2, 24]: 1.49 | Complete [2, 25]: 0.9801

C=C[C@H]1C[N@@]2CC[C@H]1C[C@@H]2[C@@H](O)c1ccnc2ccc(OC)cc12 [Quinidine]
Complete Media [1, 21]: 0.8492 | Difference [1, 9]: −0.29 | Complete [2, 7]: 1.951 | Difference [2, 8]: 0.93

C[C@@H]1[C@@H](c2ccc(Cl)cc2)SC(=O)N1C(=O)NC1CCCCC1 [Hexythiazox]
Cholesterol-free media + simvastatin (0.04 μM) ([1]; NCI-H292 cells, cholesterol-free media with simvastatin 0.04 μM, […]): 0.8643 | Complete Media ([1]; NCI-H292 cells, complete media, […]): 0.9913 | Difference ([1]; complete media minus cholesterol-free media + simvastatin, […]): 0.13 | Difference [2, 22]: −0.16 | Cholesterol-free ([2]; NCI-H292 cells, FDA drug library screen, cholesterol-free media without statin): 1.557 | Complete [2, 4]: 1.396

O=C(O)[C@H](O)[C@@H](O)[C@H](O)[C@H](O)CO [D-Gluconic acid]
Cholesterol-free media + simvastatin (0.04 μM) [1]: 1.103 | Complete Media [1]: 0.9995 | Difference [1]: −0.10 | Cholesterol-free [2]: 1.845 | Complete [2]: 1.115 | Difference [2]: −0.73

Cc1cn(-c2cc(NC(=O)c3ccc(C)c(Nc4nccc(-c5cccnc5)n4)c3)cc(C(F)(F)F)c2)cn1
Cholesterol-free media + simvastatin (0.04 μM) [1, 3]: 0.854 | Complete Media [1, 4]: 0.7821 | Difference [1, 9]: −0.07 | Difference [2, 23]: −0.54 | Cholesterol-free [2, 24]: 1.23 | Complete [2, 25]: 0.6857

COc1c(C)c2c(c(O)c1C/C=C(\C)CCC(=O)OCCN1CCOCC1)C(=O)OC2 [Mycophenolate Mofetil]
Cholesterol-free media + simvastatin (0.04 μM) [1, 3]: 0.7059 | Complete Media [1, 4]: 0.6206 | Difference [1, 9]: −0.09 | Difference [2, 10]: −0.01 | Cholesterol-free [2, 6]: 0.3372 | Complete [2, 7]: 0.3232
